Assay results taken from patent US6706740B2, “Fungicidal heterocyclic aromatic amides and their compositions, methods of use and preparation” (Dow AgroSciences LLC, priority 1999, dated 2004).
Where two headings read alike, the source gives them in different places.

What was measured:
[1] = system: Magnaporthe grisea (Pyricularia oryzae—PYRIOR); test: microbe, parasite or virus in culture; type: cell-based; conditions: Pyricularia oryzae, read-out: PYRIOR in vitro Growth Inhibition
[2] = system: Puccinia recondita—PUCCRT; test: Brown Rust of Wheat, in vivo whole plant, 24 Hour Protectant; conditions: Puccinia, control of fungal infection vs untreated plants, read-out: PUCCRT in vivo 1 Day Protectant
[3] = system: Stagonospora nodorum (Leptosphaeria nodorum—LEPTNO); test: In vitro fungal growth inhibition, Stagonospora nodorum (LEPTNO); type: cell-based; conditions: Leptosphaeria, read-out: LEPTNO in vitro Growth Inhibition
Septoria tritici—SEPTTR = test: Leaf Blotch of Wheat, in vivo whole plant, 24 Hour Protectant; conditions: Zymoseptoria tritici, 24 h, control of fungal infection vs untreated plants, read-out: SEPTTR in vivo 1 Day Protectant
[4] = system: Rhizoctonia solani (RHIZSO); test: microbe, parasite or virus in culture; type: cell-based; conditions: Rhizoctonia solani, read-out: RHIZSO in vitro Growth Inhibition
Erysiphe graminis—ERYSGT = test: Powdery Mildew of Wheat, in vivo whole plant, 24 Hour Protectant; conditions: Erysiphe, control of fungal infection vs untreated plants, read-out: ERYSGT in vivo 1 Day Protectant
[5] = system: Phytophthora infestans (PHYTIN); test: microbe, parasite or virus in culture; type: cell-based; conditions: Phytophthora infestans, read-out: PHYTIN in vitro Growth Inhibition
[6] = system: Leptosphaeria nodorum—LEPTNO; test: Glume Blotch of Wheat, in vivo whole plant, 24 Hour Protectant; conditions: control of fungal infection vs untreated plants; for pest or weed control at 100 ppm: Leptosphaeria, read-out: LEPTNO in vivo 1 Day Protectant
[7] = system: Phytophthora infestans—PHYTIN; test: whole plant or invertebrate; type: in vivo; conditions: Phytophthora, in Solanum lycopersicum, 24 h, read-out: PHYTIN in vivo 1 Day Protectant
[8] = system: Mycosphaerella graminicola (Septoria tritici—SEPTTR); test: In vitro fungal growth inhibition, Mycosphaerella graminicola (SEPTTR); type: cell-based; conditions: Zymoseptoria tritici, read-out: SEPTTR in vitro Growth Inhibition
Ustilago maydis (USTIMA) = test: microbe, parasite or virus in culture; type: cell-based; conditions: Mycosarcoma maydis, read-out: USTIMA in vitro Growth Inhibition
[9] = wheat plants sprayed at 100 ppm, inoculated after 24 hours
[10] = 100 ppm spray, 24 hour protectant, wheat

Row | Compound | melting point | inhibition at 25 ppm [1] | pest or weed control at 100 ppm [2, 9] | inhibition at 25 ppm ([3]; 25 ppm in the growth medium) | pest or weed control at 100 ppm (Septoria tritici—SEPTTR; [9]) | inhibition at 25 ppm [4] | pest or weed control at 100 ppm (Erysiphe graminis—ERYSGT; [9]) | inhibition at 25 ppm [5] | pest or weed control at 100 ppm [6, 9] | pest or weed control at 100 ppm [7] | inhibition at 25 ppm ([8]; 25 ppm in the growth medium) | inhibition at 25 ppm (Ustilago maydis (USTIMA)) | LEPTNO in vivo 1 Day Protectant [6, 9] | pest or weed control at 100 ppm [2, 10] | inhibition at 25 ppm ([3]; 25 ppm in growth medium) | pest or weed control at 100 ppm (Septoria tritici—SEPTTR; [10]) | pest or weed control at 100 ppm (Erysiphe graminis—ERYSGT; [10]) | pest or weed control at 100 ppm [6, 10] | inhibition at 25 ppm ([8]; 25 ppm in growth medium)
1 | CC(C)C(=O)O[C@H]1[C@H](C)OC(=O)[C@@H](NC(=O)c2cnccc2O)COC(=O)[C@@H]1Cc1ccccc1 [Compound 503] | 213 to 215 °C (dec.) | < 80% | 25 to 74% | > 80% | < 25% | < 80% | 25 to 74% | < 80% | 25 to 74% | < 25% | > 80% | < 80% | – | – | – | – | – | – | –
2 | Cc1nc(O)c(C(=O)N[C@H]2COC(=O)[C@H](Cc3ccccc3)[C@@H](OC(=O)C(C)C)[C@H](C)OC2=O)nc1C [Compound 536] | 80 to 83 °C | < 80% | 25 to 74% | < 80% | 25 to 74% | < 80% | < 25% | < 80% | – | < 25% | > 80% | < 80% | + + | – | – | – | – | – | –
3 | O=C(Nc1cccc(Oc2ccccc2)c1)c1cccnc1O [Compound 521] | 200 to 201 °C | < 80% | < 25% | < 80% | < 25% | < 80% | < 25% | < 80% | 25 to 74% | 25 to 74% | < 80% | < 80% | – | – | – | – | – | – | –
4 | COc1nc(O)c(C(=O)N[C@H]2COC(=O)[C@H](Cc3ccccc3)[C@@H](OC(=O)C(C)C)[C@H](C)OC2=O)nc1Cl [Compound 537] | 84 to 86 °C | < 80% | 25 to 74% | < 80% | 25 to 74% | < 80% | < 25% | < 80% | – | < 25% | < 80% | < 80% | + + | – | – | – | – | – | –
5 | O=C(Nc1cccc(Cl)c1)c1ncccc1O [Compound 212] | 131 to 132 °C | > 80% | – | – | – | < 80% | – | < 80% | – | < 25% | – | < 80% | – | < 25% | < 80% | < 25% | < 25% | < 25% | < 80%
6 | CC(C)C(=O)O[C@H]1[C@H](C)OC(=O)[C@@H](NC(=O)c2nc3ccccc3cc2O)COC(=O)[C@@H]1Cc1ccccc1 [Compound 562] | 163 to 165 °C | < 80% | < 25% | < 80% | 25 to 74% | < 80% | 25 to 74% | < 80% | < 25% | < 25% | < 80% | < 80% | – | – | – | – | – | – | –
7 | CCOc1ccnc(C(=O)NC2CC(C)(C)CC(C)(C)C2)c1O [Compound 474] | 107 to 110 °C | < 80% | 25 to 74% | < 80% | < 25% | < 80% | < 25% | < 80% | 25 to 74% | < 25% | < 80% | < 80% | – | – | – | – | – | – | –
